In paper PMC12087695, “A Phenotyping Tool for Seven Cytochrome P450 Enzymes and Two Transporters: Application to Examine the Effects of Clopidogrel and Gemfibrozil” (Clinical Pharmacology and Therapeutics, 2025):

Assays:
clinical = conditions: human; for AUC(0-inf): AUC0-∞; for half-life: t1/2, geometric mean (geometric CV); for Tmax: median (range)
[1] = Plasma pharmacokinetics of cocktail index drugs and their metabolites, five-phase crossover trial; conditions: for AUC(0-t) / AUC(0-inf) / Cmax / half-life / Tmax: human, plasma, oral; for AUC(0-t) / AUC(0-inf) / Cmax: geometric mean (geometric CV); for AUC(0-inf): AUC0-∞; for half-life: t1/2, geometric mean (geometric CV); for Tmax: median (range);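 as to all read-outs here: parameters derived from plasma drug levels quantified by LC–MS with internal standards after acetonitrile protein precipitation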
[2] = in vivo, AUC0-23h, geometric mean (geometric CV), phase II: Geneva cocktail
[3] = in vivo, geometric mean (geometric CV), phase II: Geneva cocktail
[4] = in vivo, phase II: Geneva cocktail
[5] = AUC0-12h, phase II: Geneva cocktail
[6] = in vivo, AUC0-23h, geometric mean (geometric CV), phase IV: clopidogrel 300 mg pretreatment + full cocktail
[7] = in vivo, AUC0-23h, geometric mean (geometric CV), phase V: gemfibrozil 600 mg b.i.d. 3 days pretreatment + full cocktail
[8] = in vivo, geometric mean (geometric CV), phase IV: clopidogrel 300 mg pretreatment + full cocktail
[9] = in vivo, geometric mean (geometric CV), phase V: gemfibrozil 600 mg b.i.d. 3 days pretreatment + full cocktail
[10] = in vivo, phase V: gemfibrozil 600 mg b.i.d. 3 days pretreatment + full cocktail
[11] = in vivo, phase IV: clopidogrel 300 mg pretreatment + full cocktail
[12] = phase IV: clopidogrel 300 mg pretreatment + full cocktail
[13] = phase V: gemfibrozil 600 mg b.i.d. 3 days pretreatment + full cocktail

| SMILES | AUC(0-t) (clinical; [2]) [ng·h/mL] | AUC(0-inf) (clinical; [3]) [ng·h/mL] | Cmax (clinical; [3]) [ng/mL] | half-life (clinical; [4]) [h] | AUC(0-t) (clinical; [6]) [ng·h/mL] | AUC(0-t) (clinical; [7]) [ng·h/mL] | AUC(0-inf) (clinical; [8]) [ng·h/mL] | AUC(0-inf) (clinical; [9]) [ng·h/mL] | Cmax (clinical; [8]) [ng/mL] | Cmax (clinical; [9]) [ng/mL] | half-life (clinical; [11]) [h] | half-life (clinical; [10]) [h] | Tmax, median (range) ([1]; phase II: Geneva cocktail) | Tmax, median (range) [1, 12] | Cmax, geometric mean (geometric CV) ([1]; phase II: Geneva cocktail) | t1/2, geometric mean (geometric CV) [1, 12] | AUC0-23h, geometric mean (geometric CV) [1, 13] | t1/2, geometric mean (geometric CV) [1, 13] | further results |
| --- | --- | --- | --- | --- | --- | --- | --- | --- | --- | --- | --- | --- | --- | --- | --- | --- | --- | --- | --- |
| CC(NC(C)(C)C)C(=O)c1cccc(Cl)c1 (stereo not drawn) [Bupropion, bupropion] | 76.5 | 84.7 | 20 | 7.89 | – | – | – | – | – | – | – | – | – | – | – | – | – | – | – |
| Cn1c(=O)c2c(ncn2C)n(C)c1=O [Caffeine, caffeine] | – | – | – | – | – | – | – | – | – | – | – | – | – | – | – | – | – | – | AUC(0-t) (clinical; plasma, oral): 6270 ng·h/mL; Prolongation of t1/2 ([1]; gemfibrozil pretreatment vs control): 21%; AUC(0-t) [1, 5]: 6250 ng·h/mL; AUC(0-inf) ([1]; phase II: Geneva cocktail): 7830 ng·h/mL; Cmax ([1]; phase II: Geneva cocktail): 1130 ng/mL; half-life ([1]; phase II: Geneva cocktail): 4.65 h |
| CC(C(=O)O)c1ccc(-c2ccc(O)cc2)c(F)c1 (stereo not drawn) [4’-OH-flurbiprofen, 4′‐hydroxyflurbiprofen] | 224 | 263 | 46.4 | 3.44 | – | – | – | – | – | – | – | – | – | – | – | – | – | – | Tmax (clinical; [4]): 1.8 h |
| COc1ccc2c(c1)[C@]13CCCC[C@@H]1[C@H](C2)N(C)CC3 [Dextromethorphan, dextromethorphan] | 4.9 | 5.58 | 0.745 | 4.24 | 6.01 | 6.07 | 6.68 | 6.82 | 0.858 | 0.898 | 4.61 | 4.38 | 2.0 (2.0-4.0) h | 2.0 (2.0-3.0) h | – | – | – | – | Tmax (clinical; [10]): 2.5 h |
| CC(C(=O)O)c1ccc(-c2ccccc2)c(F)c1 (stereo not drawn) [Flurbiprofen, flurbiprofen] | 5550 | 5910 | 1090 | 4.82 | 5720 | 5770 | 5940 | 6080 | 1180 | 1110 | 4.35 | 4.61 | – | – | – | – | – | – | Tmax (clinical; [11]): 1.5 h; Tmax (clinical; [10]): 1.5 h |
| Cc1ncc2n1-c1ccc(Cl)cc1C(c1ccccc1F)=NC2 [Midazolam, midazolam] | 9.89 | 9.82 | – | 2.29 | 11.3 | 8.06 | 11.2 | 7.98 | 4.33 | 3.25 | 2.4 | 2.29 | 0.5 (0.5-1.0) h | 1.0 (0.5-1.0) h | 4.03 (36.4%) ng/mL | – | – | – | – |
| COc1ccc2nc([S+]([O-])Cc3ncc(CO)c(OC)c3C)[nH]c2c1 (stereo not drawn) [5’-OH-omeprazole, 5′‐hydroxyomeprazole] | – | – | – | – | – | – | – | – | – | – | – | – | 1.5 (1.0-2.0) h | 1.5 (1.0-3.0) h | 99.8 (87.9%) ng/mL | 1.04 (15.5%) h | 253 (37.6%) ng×h/mL | 1.34 (32.6%) h | AUC0-23h, geometric mean (geometric CV) ([1]; phase II: Geneva cocktail): 194 (35.7%) ng×h/mL; AUC0-∞, geometric mean (geometric CV) ([1]; phase II: Geneva cocktail): 193 (36.1%) ng×h/mL; t1/2, geometric mean (geometric CV) ([1]; phase II: Geneva cocktail): 1.17 (36.9%) h; AUC0-23h, geometric mean (geometric CV) [1, 12]: 213 (14.6%) ng×h/mL; AUC0-∞, geometric mean (geometric CV) [1, 12]: 212 (14.5%) ng×h/mL; Cmax, geometric mean (geometric CV) [1, 12]: 115 (23.8%) ng/mL; AUC0-∞, geometric mean (geometric CV) [1, 13]: 253 (36.9%) ng×h/mL; Cmax, geometric mean (geometric CV) [1, 13]: 104 (76.9%) ng/mL; Tmax, median (range) [1, 13]: 1.5 (1.0-4.0) h |
| COc1ccc2nc(S(=O)(=O)Cc3ncc(C)c(OC)c3C)[nH]c2c1 [Omeprazole sulfone, omeprazole sulfone] | – | – | – | – | – | – | – | – | – | – | – | – | – | – | – | – | – | – | AUC(0-t) ([1]; AUC0-23h, phase II: Geneva cocktail): 113 ng·h/mL; AUC(0-t) ([1]; AUC0-23h, phase IV: clopidogrel 300 mg pretreatment + full cocktail): 156 ng·h/mL; AUC(0-t) ([1]; AUC0-23h, phase V: gemfibrozil 600 mg b.i.d. 3 days pretreatment + full cocktail): 124 ng·h/mL; AUC(0-inf) ([1]; phase II: Geneva cocktail): 111 ng·h/mL; AUC(0-inf) [1, 12]: 154 ng·h/mL; AUC(0-inf) [1, 13]: 122 ng·h/mL; Cmax ([1]; phase II: Geneva cocktail): 35.3 ng/mL; Cmax [1, 12]: 51.2 ng/mL; Cmax [1, 13]: 41.8 ng/mL; Tmax ([1]; phase II: Geneva cocktail): 1.5 h; Tmax [1, 12]: 1.5 h; Tmax [1, 13]: 1.5 h; half-life ([1]; phase II: Geneva cocktail): 1.9 h; half-life [1, 12]: 1.88 h; half-life [1, 13]: 1.64 h |
| CN1CC[C@@]23CCCC[C@@H]2[C@@H]1Cc1ccc(O)cc13 [Dextrorphan, dextrorphan] | 8.07 | 8.35 | 1.82 | 2.5 | 9.66 | 17.8 | 10 | 17.8 | 2.05 | 3.63 | 2.68 | 2.77 | – | – | – | – | – | – | Tmax (clinical; [4]): 2 h; Tmax (clinical; [11]): 2 h; Tmax (clinical; [10]): 2 h |
| Cn1c(=O)[nH]c2ncn(C)c2c1=O [Paraxanthine, paraxanthine] | – | – | – | – | – | – | – | – | – | – | – | – | – | – | – | – | – | – | AUC(0-t) [1, 5]: 3370 ng·h/mL; AUC(0-t) ([1]; AUC0-12h, phase IV: clopidogrel 300 mg pretreatment + full cocktail): 3940 ng·h/mL; AUC(0-t) ([1]; AUC0-12h, phase V: gemfibrozil 600 mg b.i.d. 3 days pretreatment + full cocktail): 3360 ng·h/mL; AUC(0-inf) ([1]; phase II: Geneva cocktail): 7220 ng·h/mL; AUC(0-inf) [1, 12]: 8930 ng·h/mL; AUC(0-inf) [1, 13]: 9160 ng·h/mL; Cmax ([1]; phase II: Geneva cocktail): 374 ng/mL; Cmax [1, 12]: 436 ng/mL; Cmax [1, 13]: 358 ng/mL; Tmax ([1]; phase II: Geneva cocktail): 4 h; Tmax [1, 12]: 3 h; half-life ([1]; phase II: Geneva cocktail): 11 h; half-life [1, 12]: 12.8 h; half-life [1, 13]: 15.9 h |
| C[C@H]1NC(C)(C)CO[C@]1(O)c1cccc(Cl)c1 [OH-bupropion, hydroxybupropion] | – | – | – | – | – | – | – | – | – | – | – | – | 3.0 (2.0-4.0) h | 4.0 (1.5-12.0) h | 36.9 (38.6%) ng/mL | 34.6 (42.9%) h | 585 (43.5%) ng×h/mL | 29.4 (51.7%) h | AUC0-23h, geometric mean (geometric CV) ([1]; phase II: Geneva cocktail): 571 (35.3%) ng×h/mL; AUC0-∞, geometric mean (geometric CV) ([1]; phase II: Geneva cocktail): 1200 (44.1%) ng×h/mL; t1/2, geometric mean (geometric CV) ([1]; phase II: Geneva cocktail): 26.1 (40.1%) h; AUC0-23h, geometric mean (geometric CV) [1, 12]: 181 (37.6%) ng×h/mL; AUC0-∞, geometric mean (geometric CV) [1, 12]: 499 (45.3%) ng×h/mL; Cmax, geometric mean (geometric CV) [1, 12]: 10.3 (39.9%) ng/mL; AUC0-∞, geometric mean (geometric CV) [1, 13]: 1380 (41.2%) ng×h/mL; Cmax, geometric mean (geometric CV) [1, 13]: 34.1 (44.6%) ng/mL; Tmax, median (range) [1, 13]: 6.0 (1.0-12.0) h |
| COc1ccc2[nH]c([S+]([O-])Cc3ncc(C)c(OC)c3C)nc2c1 (stereo not drawn) [Omeprazole, omeprazole] | 177 | 177 | – | 0.76 | 214 | – | 214 | 149 | 167 | 98 | – | – | – | – | 144 (88.5%) ng/mL | 0.69 (30.9%) h | 150 (62.8%) ng×h/mL | 0.78 (59.9%) h | – |
| OCc1ncc2n1-c1ccc(Cl)cc1C(c1ccccc1F)=NC2 [1’-OH-midazolam, 1′‐hydroxymidazolam] | – | – | – | – | – | – | – | – | – | – | – | – | 1.0 (0.5-1.0) h | 1.0 (0.5-1.0) h | 1.48 (40.9%) ng/mL | 1.46 (26.6%) h | 7.33 (41.1%) ng×h/mL | 1.85 (28.8%) h | AUC0-23h, geometric mean (geometric CV) ([1]; phase II: Geneva cocktail): 3.54 (37.4%) ng×h/mL; AUC0-∞, geometric mean (geometric CV) ([1]; phase II: Geneva cocktail): 3.75 (35.9%) ng×h/mL; t1/2, geometric mean (geometric CV) ([1]; phase II: Geneva cocktail): 1.53 (35.6%) h; AUC0-23h, geometric mean (geometric CV) [1, 12]: 5.03 (42.0%) ng×h/mL; AUC0-∞, geometric mean (geometric CV) [1, 12]: 5.15 (39.8%) ng×h/mL; Cmax, geometric mean (geometric CV) [1, 12]: 2.14 (42.5%) ng/mL; AUC0-∞, geometric mean (geometric CV) [1, 13]: 7.65 (36.6%) ng×h/mL; Cmax, geometric mean (geometric CV) [1, 13]: 2.83 (38.7%) ng/mL; Tmax, median (range) [1, 13]: 1.0 (0.5-1.5) h |
